Usually TGI stands for the concentration at which net growth stops. A lower TGI goes with more potent growth arrest. As usually defined, the GI50 is the concentration giving 50% growth inhibition.

Among the test systems are M14 melanoma; SK-MEL-2 melanoma; 786-0 renal; NCI/ADR-RES ovarian; MCF7 breast; KM12 colon; HT29 colon; EKVX NSCLC; HL-60(TB) leukemia; IGROV1 ovarian.
Holding throughout (assay): DTP human tumour cell line panel, 48 h

Structures are written as SMILES.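 Five compound concentrations were applied to cells in 96-well plates for 48 hours; endpoints were derived by simple linear interpolation of the resulting dose-response curve. GI50: concentration for 50% inhibition of growth. Definition used: TGI = concentration required for complete inhibition of growth.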 A value given as a limit tells only on which side of the number the result lay.

For the molecule `CCCN=C1NC(C)=CSC(Nc2ccccc2)=C1C#N`, the TGI in the test with M14 melanoma, in the test on SK-MEL-2 melanoma, in the test with 786-0 renal, with NCI/ADR-RES ovarian, in the test with MCF7 breast and with KM12 colon was above 100 µM in each case.

Take `OCc1ccc2c(c1)CC1(Cc3ccccc3C1)C2`: the concentration for total growth inhibition (TGI) is 33.6 µM in the test on HT29 colon; 29.6 µM with 786-0 renal; 59.5 µM with NCI/ADR-RES ovarian; 80.2 µM in the test on EKVX NSCLC; 67.4 µM in the test with HL-60(TB) leukemia; 57.3 µM with KM12 colon.

As for `Oc1ccc(-c2nc3cc(C(F)(F)F)ccc3s2)cc1`, the TGI was determined as 35.9 µM with HT29 colon; 29.2 µM in the test with M14 melanoma; 30.1 µM in the test with SK-MEL-2 melanoma; 35.5 µM with NCI/ADR-RES ovarian; 16.9 µM in the test on EKVX NSCLC; 23.3 µM in the test with MCF7 breast. For the same molecule, the TGI in the test with HL-60(TB) leukemia is 40.7 µM; in the test on KM12 colon it was 27.8 µM; with IGROV1 ovarian it was 23.8 µM.

As for `CC1CN(c2cc3c(cc2F)c(=O)c(C(=O)O)cn3-c2ccc(N3CCN(C)CC3)cn2)CC(C)N1` (stereo not drawn), the concentration for total growth inhibition (TGI) in the test with HT29 colon, in the test with M14 melanoma, in the test with 786-0 renal, in the test on NCI/ADR-RES ovarian, in the test on EKVX NSCLC and in the test on MCF7 breast was above 100 µM in each case. The total growth inhibition concentration (TGI) in the test with HL-60(TB) leukemia, with KM12 colon and with IGROV1 ovarian was above 100 µM in each case.

For the molecule `CCCCCCc1ccc(CCCCCCCC(=O)O)o1`, the concentration for total growth inhibition (TGI) in the test on HT29 colon, with M14 melanoma, in the test on SK-MEL-2 melanoma, with 786-0 renal, with NCI/ADR-RES ovarian and in the test with EKVX NSCLC was above 100 µM in each case. Besides, the TGI in the test on MCF7 breast, with KM12 colon and in the test on IGROV1 ovarian was above 100 µM in each case.

For `O=S(=O)(O)c1cc(S(=O)(=O)O)c2cc(N=Nc3ccc(N=Nc4ccc(/C=C/c5ccc(N=[N+]([O-])c6ccc(/C=C/c7ccc(N=Nc8ccc(N=Nc9ccc%10cc(S(=O)(=O)O)cc(S(=O)(=O)O)c%10c9)cc8)cc7S(=O)(=O)O)c(S(=O)(=O)O)c6)cc5S(=O)(=O)O)c(S(=O)(=O)O)c4)cc3)ccc2c1`, the TGI in the test with HT29 colon, with SK-MEL-2 melanoma, in the test with NCI/ADR-RES ovarian, in the test with EKVX NSCLC, in the test with MCF7 breast and in the test with HL-60(TB) leukemia was above 100 µM throughout. For the same molecule, the TGI with KM12 colon and with IGROV1 ovarian was above 100 µM each time.

Turning to `COP(=O)(CP(=O)(OC)OCCC(C)CCC=C(C)C)OC` (stereo not drawn), the TGI in the test with M14 melanoma, in the test with SK-MEL-2 melanoma, in the test on 786-0 renal, in the test with NCI/ADR-RES ovarian, with EKVX NSCLC and in the test on MCF7 breast was above 100 µM each time. Further, the TGI with KM12 colon and in the test with IGROV1 ovarian was above 100 µM throughout.

Take `CC(=O)/C=C(/C)[O-].CC(=O)/C=C(/C)[O-].CC(=O)[CH-]C(C)=O.CC(=O)[CH-]C(C)=O.[Zr+4]`: the GI50 in the test with HT29 colon is above 100 µM; in the test with M14 melanoma, above 100 µM; with SK-MEL-2 melanoma it was above 100 µM; in the test on EKVX NSCLC, above 100 µM; with HL-60(TB) leukemia, 28.8 µM; in the test with KM12 colon, above 100 µM. Besides, the total growth inhibition concentration (TGI) was above 100 µM in the test on HT29 colon; above 100 µM with M14 melanoma; above 100 µM in the test on SK-MEL-2 melanoma; above 100 µM in the test on EKVX NSCLC; 71.3 µM in the test on HL-60(TB) leukemia; above 100 µM in the test on KM12 colon.

As for `CCSC12OC3(CCCCCN3C1=O)C1C(=O)N(c3ccccc3)C(=O)C12` (stereo not drawn), the concentration for total growth inhibition (TGI) in the test on HT29 colon, in the test with M14 melanoma, with SK-MEL-2 melanoma, with 786-0 renal, with NCI/ADR-RES ovarian and in the test with EKVX NSCLC was above 100 µM in each case. The TGI in the test with HL-60(TB) leukemia, with KM12 colon and in the test on IGROV1 ovarian was above 100 µM in each case.

On to `CCN(CC)/N=C\c1c2ccccc2cc2ccccc12`, for which the TGI in the test with HT29 colon is 88.3 µM; in the test with M14 melanoma, 51.6 µM; in the test on SK-MEL-2 melanoma, 61.9 µM; in the test on 786-0 renal it was above 100 µM; in the test on NCI/ADR-RES ovarian it was above 100 µM; with EKVX NSCLC it was above 100 µM. For the same molecule, the TGI in the test with HL-60(TB) leukemia, in the test on KM12 colon and in the test with IGROV1 ovarian was above 100 µM each time.

Take `CC(C)(C)OC(=O)N1C(=O)C2CCCC21` (stereo not drawn): the concentration for total growth inhibition (TGI) with HT29 colon, in the test on M14 melanoma, in the test with SK-MEL-2 melanoma, in the test with 786-0 renal, with NCI/ADR-RES ovarian and in the test on HL-60(TB) leukemia was above 100 µM throughout. Further, the TGI in the test with KM12 colon and in the test with IGROV1 ovarian was above 100 µM throughout.

With `Cc1ccc(/C=c2\c(=O)[nH]c3nc4ccccc4c(=O)n23)cc1`, the concentration for total growth inhibition (TGI) in the test with M14 melanoma, in the test on SK-MEL-2 melanoma, with 786-0 renal, in the test on NCI/ADR-RES ovarian, with MCF7 breast and in the test on HL-60(TB) leukemia was above 100 µM each time. Also, the TGI in the test on KM12 colon was above 100 µM.

Take `Clc1ccc(C2SCc3nc4ccccc4n32)cc1` (stereo not drawn): the TGI in the test with HT29 colon was 49.4 µM; with M14 melanoma, 68.1 µM; with SK-MEL-2 melanoma, 33 µM; with EKVX NSCLC, above 100 µM; in the test on HL-60(TB) leukemia it was 22.6 µM; in the test with IGROV1 ovarian it was 55.9 µM.

`CCOP(=O)(OCC)C(Nc1ccc(Cl)cc1)c1ccc(F)cc1` (stereo not drawn): the TGI in the test with HT29 colon is 62.9 µM; in the test on M14 melanoma it was 37.2 µM; with SK-MEL-2 melanoma, 35.8 µM; with 786-0 renal, 43.4 µM; in the test with NCI/ADR-RES ovarian it was 87.3 µM; in the test on EKVX NSCLC, above 100 µM. In addition, the values for the total growth inhibition concentration (TGI) with HL-60(TB) leukemia and in the test with KM12 colon were 54.1 µM and above 100 µM, respectively.

As for `COC(=O)/C=C1\C(CO[Si](C)(C)C(C)(C)C)OC(n2cc(C)c(=O)n(C)c2=O)C1O[Si](C)(C)C(C)(C)C` (stereo not drawn), the TGI in the test with HT29 colon, in the test with M14 melanoma, in the test with SK-MEL-2 melanoma, in the test with 786-0 renal, with NCI/ADR-RES ovarian and in the test on EKVX NSCLC was above 100 µM in each case. In addition, the concentration for total growth inhibition (TGI) with MCF7 breast, in the test with KM12 colon and in the test with IGROV1 ovarian was above 100 µM in each case.

The record behind these values is PubChem BioAssay (NCI).
